Experimental data published in patent US7989462B2, “4-arylamin-or-4-heteroarylamino-quinazolines and analogs as activators of caspases and inducers of apoptosis and the use thereof” (Myrexis, Inc., priority 2003, dated 2011).

Tested on: T-47D
Assay: Caspase cascade activation in T-47D solid tumor cells (fluorogenic N-(Ac-DEVD)-N'-ethoxycarbonyl-R110 substrate)
Format: cell-based, Human
Settings: T-47D (24 hr); for EC50: Homo sapiens, T47D, read-out: Caspase Potency EC50; for Caspase Activity Ratio: ratio of net RFU of test compound to that of control samples
Experimental: Human breast cancer cell lines T-47D and DLD-1 were grown according to media component mixtures designated by American Type Culture Collection+10% FCS (Invitrogen Corporation), in a 5% CO2-95% humidity incubator at 37° C. T-47D and DLD-1 cells were maintained at a cell density between 50 and 80% confluency at a cell density of 0.1 to 0.6×10^6 cells/mL. Cells were harvested at 600×g and resuspended at 0.65×10^6 cells/mL into appropriate media+10% FCS. An aliquot of 22.5 μL of cells was added to a well of a 384-well microtiter plate containing 2.5 μL of a 10% DMSO in RPMI-1640 media solution containing 0.16 to 100 μM of (2-chloro-quinazolin-4-yl)-(4-dimethylaminophenyl)-methylamine or other test compound (0.016 to 10 μM final). An aliquot of 22.5 μL of cells was added to a well of a 384-well microtiter plate containing 2.5 μL of a 10% DMSO in RPMI-1640 media solution without test compound as the control sample. […] After incubation, the samples were removed from the incubator and 25 μL of a solution containing 14 μM of N-(Ac-DEVD)-N′-ethoxycarbonyl-R110 fluorogenic substrate (Cytovia, Inc.; WO99/18856), 20% sucrose (Sigma), 20 mM DTT (Sigma), 200 mM NaCl (Sigma), 40 mM Na PIPES buffer pH 7.2 (Sigma), and 500 μg/mL lysolecithin (Calbiochem) was added. The samples were mixed by agitation and incubated at room temperature. Using a fluorescent plate reader (Model SPECTRAfluor Plus, Tecan), an initial reading (T=0) was made approximately 1-2 min after addition of the substrate solution, employing excitation at 485 nm and emission at 530 nm, to determine the background fluorescence of the control sample. After the 3 h incubation, the samples were read for fluorescence as above (T=3 h).
The Relative Fluorescence Unit values (RFU) were used to calculate the sample readings as follows: RFU(T=3h)−Control RFU(T=0)=Net RFU(T=3h)
The activity of caspase cascade activation was determined by the ratio of the net RFU value for (2-chloro-quinazolin-4-yl)-(4-dimethylaminophenyl)-methylamine or other test compounds to that of control samples. The EC50 (nM) was determined by a sigmoidal dose-response calculation (Prism 3.0, GraphPad Software Inc.).

EC50 [µM] | Structure (SMILES) | Caspase Activity Ratio
0.047 | CC(=O)Nc1ccc(N(C)c2nc(C)nc3ccccc23)cc1 [Example 1, (4-Acetamido-phenyl)-(2-methyl-quinazolin-4-yl)-methylamine] | 8.1
> 10 | COc1c(Br)cc(N(C)c2nc(C)nc3cc([N+](=O)[O-])ccc23)cc1Br [Example 2, (3,5-Dibromo-4-methoxyphenyl)-(2-methyl-7-nitroquinazolin-4-yl)-methylamine] | 1.1
0.007 | COc1ccc(N(C)c2nc(N(C)C(C)=O)nc3ccccc23)cc1 [Example 28, (4-Methoxy-phenyl)-(2-N-methylacetamido-quinazolin-4-yl)-methylamine] | 4.0
0.21 | CC(=O)N(C)c1ccc(N(C)c2nc(C)nc3ccccc23)cc1 [Example 6, (2-Methyl-quinazolin-4-yl)-(N-methyl-4-acetamido-phenyl)-methylamine] | 9.2
0.214 | CNc1nc(N(C)c2ccc(OC)cc2)c2cc(N)ccc2n1 [Example 19, (6-Amino-2-methylamino-quinazolin-4-yl)-(4-methoxyphenyl)-methylamine] | 4.3
0.034 | COC(=O)N(C)c1nc(N(C)c2ccc(OC)cc2)c2ccccc2n1 [Example 29, (4-Methoxy-phenyl)-(2-N-methyl-methoxycarbonylamino-quinazolin-4-yl)-methylamine] | 9.6
0.014 | Cc1nc(N(C)c2ccc(N(C)C)nc2)c2ccccc2n1 [Example 27, (2-Dimethylamino-pyridine-5-yl)-(2-methyl-quinazolin-4-yl)-methylamine] | 9.0
0.039 | CNc1nc(N(C)c2ccc(N(C)C)cc2)c2ccccc2n1 [Example 15, (2-Methylamino-quinazolin-4-yl)-(4-dimethylaminophenyl)-methylamine] | 3.9
0.033 | Cc1nc(N(C)c2ccc(N(C)C)cc2)c2cc(N)ccc2n1 [Example 12, (6-Amino-2-methyl-quinazolin-4-yl)-(4-dimethylaminophenyl)-methylamine] | 3.8
1.87 | COc1ccc(N(C)c2nc(C)nc3ccc([N+](=O)[O-])cc23)cc1OC [Example 36, (3,4-Dimethoxy-phenyl)-(2-methyl-6-nitro-quinazolin-4-yl)-methylamine] | 4.0
> 10 | Cc1nc(Nc2ccc(N(C)C)nc2)c2ccccc2n1 [Example 26, (2-Dimethylamino-pyridine-5-yl)-(2-methyl-quinazolin-4-yl)-amine] | 1.3
0.009 | COc1ccc(N(C)c2nc(C)nc3ccccc23)cc1OC [Example 25, (3,4-Dimethoxy-phenyl)-(2-methyl-quinazolin-4-yl)-methylamine] | 10.2
> 10 | CSc1ccc(Nc2nc(C)nc3ccccc23)cc1 [Example 20, (4-Methylthio-phenyl)-(2-methyl-quinazolin-4-yl)-amine] | 1.1
0.032 | Cc1nc(N(C)c2ccc(NC(N)=O)cc2)c2ccccc2n1 [Example 5, (2-Methyl-quinazolin-4-yl)-(4-ureido-phenyl)-methylamine] | 9.3
0.073 | COC(=O)Nc1ccc(N(C)c2nc(C)nc3ccccc23)cc1 [Example 4, (2-Methyl-quinazolin-4-yl)-(4-methoxycarbonylamino-phenyl)-methylamine] | 8.5
0.068 | COc1ccc(N(C)c2nc(NN)nc3ccccc23)cc1 [Example 32, (2-Hydrazinyl-quinazolin-4-yl)-(4-methoxy-phenyl)-methylamine] | 7.4
5.08 | COc1ccc(N(C)c2nc(Cl)nc3ccc([N+](=O)[O-])cc23)cc1 [Example 11, (2-Chloro-6-nitroquinazolin-4-yl)-(4-methoxyphenyl)-methylamine] | 4.0
0.979 | Cc1nc(N(C)c2ccc(N(C)C)cc2)c2cc([N+](=O)[O-])ccc2n1 [Example 10, (2-Methyl-6-nitroquinazolin-4-yl)-(4-dimethylaminophenyl)-methylamine] | 2.6
> 10 | COc1cc(Nc2nc(C)nc3ccccc23)cc(OC)c1OC [Example 38, (2-Methyl-quinazolin-4-yl)-(3,4,5-trimethoxy-phenyl)-amine] | 0.9
0.221 | COc1ccc(N(C)c2nc(N(C)C)nc3ccc(N)cc23)cc1 [Example 18, (6-Amino-2-dimethylamino-quinazolin-4-yl)-(4-methoxyphenyl)-methylamine] | 4.7
0.004 | CN(C)c1ccc(N(C)c2nc(Cl)nc3ccccc23)cc1 [Example 13, (2-Chloro-quinazolin-4-yl)-(4-dimethylaminophenyl)-methylamine] | 4.2
2.86 | Cc1nc(Nc2ccc(N(C)C)cc2)c2ccccc2n1 [Example 22, (4-Dimethylamino-phenyl)-(2-methyl-quinazolin-4-yl)-amine] | 8.7
2.36 | COc1ccc(N(C)c2nc(N(C)C)nc3ccc([N+](=O)[O-])cc23)cc1 [Example 14, (2-Dimethylamino-6-nitroquinazolin-4-yl)-(4-methoxyphenyl)-methylamine] | 4.2
0.258 | COc1ccc(CNc2nc(N(C)c3ccc(OC)cc3)c3ccccc3n2)cc1 [Example 9] | 5.6
0.014 | CC(=O)N(C)c1nc(N(C)c2ccc(N(C)C)cc2)c2ccccc2n1 [Example 16, [2-(N-Methyl-acetamido)-quinazolin-4-yl]-(4-dimethylaminophenyl)-methylamine] | 2.4
0.075 | COc1ccc(N(C)c2nc(NCc3ccccc3)nc3ccccc23)cc1 [Example 3, (2-Benzylamino-quinazolin-4-yl)-(4-methoxyphenyl)-methylamine] | 8.2
0.619 | CNc1nc(N(C)c2ccc(OC)cc2)c2cc([N+](=O)[O-])ccc2n1 [Example 17, (2-Methylamino-6-nitroquinazolin-4-yl)-(4-methoxyphenyl)-methylamine] | 3.7
0.293 | COC(=O)Nc1ccc2nc(C)nc(N(C)c3ccc(OC)cc3)c2c1 [Example 33, (6-methoxycarbonylamino-2-methyl-quinazolin-4-yl)-(4-methoxy-phenyl)-methylamine] | 6.7
> 10 | COc1ccc(Nc2nc(C)nc3ccc([N+](=O)[O-])cc23)cc1OC [Example 34, (3,4-Dimethoxy-phenyl)-(2-methyl-6-nitro-quinazolin-4-yl)-amine] | 1.1
0.027 | COc1ccc(N(C)c2nc(NC(C)=O)nc3ccccc23)cc1 [Example 41, (2-Acetamido-quinazolin-4-yl)-(4-methoxy-phenyl)-methylamine] | 3.5

Structure (SMILES) | EC50 [µM] | Caspase Activity Ratio
COc1ccc(Nc2ncnc3ccccc23)cc1OC [Example 35, (3,4-Dimethoxy-phenyl)-(quinazolin-4-yl)-amine] | > 10 | 1.0
